{"source": "patent US20170340648A1", "about": "“Pharmaceutical Compositions Affecting Bioenergetic Processes in a Eukaryotic Biological System and Methods of Treatment” (JOYCE BIOTECH CORP., priority 2016, published 2017)", "key": {"[1]": {"conditions": "rat, in vivo; cited from earlier work"}, "C2C12 murine myoblasts": {"system": "C2C12 murine myoblasts", "assay_type": "cell-based", "procedure": "In the experiment, immortalized murine C2C12 myoblast cells were exposed to various pre-assay growth conditions prior to being seeded into a Seahorse XF24 Extracellular Flux Analyzer cell culture plate. The basal oxygen consumption (OCR) and extracellular acidification (ECAR) rates were measured to establish baseline metabolic rates for each experimental culture condition. The cells were then metabolically perturbed by the successive addition of three different compounds that shift the bioenergetic profile of the cell.\nThe first compound added following the collection of baseline metabolic data was oligomycin.\nThe second agent injected, carbonyl cyanide-p-trifluoromethoxyphenylhydrazone (FCCP), is an ionophore that is a mobile ion carrier.\nRotenone, a Complex I inhibitor, is the third agent injected in sequence, it prevents the transfer of electrons from the Fe—S center in Complex I to ubiquinone (Coenzyme Q).\nRotenone exposure inhibits mitochondrial respiration and enables both the mitochondrial and non-mitochondrial fractions contributing to respiration to be calculated.\nStatistical analysis was conducted via two-tailed Mann-Whitney U test of variance. U and P values were calculated using algorithms supplied by the Meta Numerics and ALGLIB statistical libraries. During calculations, when the value of N (the number of scores) was equal to or greater than 10, it was assumed that the sampling distribution was approximately normal, and a Z-ratio was also employed to calculate the value of P. The threshold for significance was set at P≦to 0.05 (Table 27A1 to Table 27F2).\nC2C12 murine myoblast cells were placed into pre-assay growth condition categories and cultured for 24 hours.\nCSC12 murine myoblast cells were seeded into a Seahorse XF24 24 well culture plate at a density of 10,000 cells/well in 100 microliters of Growth Medium.\nThe seeded XF24 culture plates were placed into a 37 degree Centigrade incubator at 10% CO2 for 24 hours. […]"}, "glucocorticoid receptors": {"system": "glucocorticoid receptors", "conditions": "cultured cells; cited from earlier work"}}, "note": "Entries after “also recorded” stand apart in the source; their conditions may differ.", "data": [{"compound": "O=CC[C@@H](O)[C@H](O)[C@H](O)CO", "note": "[2-Deoxy-d-Glucose]", "values": [{"measurement": "cardiac toxicity", "setting": "[1]", "value": "cardiotoxicity"}]}, {"compound": "C=C(C)[C@H]1Cc2c(ccc3c2O[C@@H]2COc4cc(OC)c(OC)cc4[C@@H]2C3=O)O1", "note": "[Rotenone]", "values": [{"measurement": "oxygen consumption rate (OCR) relative to Control condition", "setting": "C2C12 murine myoblasts; 24 h pre-assay incubation for compositions, Rotenone 2.0 μM injected, basal and FCCP conditions", "value": "significantly reduced; also recorded: decreased"}, {"measurement": "anaerobic metabolic activity as indicated by extracellular acidification rate (ECAR) relative to untreated control", "setting": "C2C12 murine myoblasts; basal, Met/Mife 25 uM/50 uM (Table 27A1), MET/KET 1 mM/50 uM (Table 27F3), Rotenone 2.0 μM", "value": "increased"}]}, {"compound": "CC(=O)N1CCN(c2ccc(OCC3COC(Cn4ccnc4)(c4ccc(Cl)cc4Cl)O3)cc2)CC1", "note": "(stereo not shown) [ketoconazole]", "values": [{"measurement": "glucocorticoid receptor activity", "setting": "glucocorticoid receptors", "value": "antagonist"}]}]}
